In US20180243273A1, “Composition for Intravesical Administration for Treating Bladder Pain” (priority 2017, published 2018):

What was measured:
Assay type in all cases: physicochemical
[1] = Solubility and stability of API in dependence of surfactant concentration; conditions: phosphate buffer and 0.50% vitamin E TPGS, compared with other buffer/surfactant combinations at 0.25% and 0.5%
Procedure: In order to prevent too high concentrations of surfactants, which can cause irritant or toxic effects after local administration in the bladder, lower concentrations were evaluated. New batches of API in citrate and phosphate buffer were manufactured. SLS and vitamin E TPGS were chosen for citrate buffer and Labrasol® and vitamin E TPGS for phosphate buffer in a concentration of 0.5% and 0.25%, each. The compositions were stirred overnight prior to filtration and analysis.

[2] = Stability after autoclaving; conditions: 121° C. and 2 bar for 20 min
Procedure: The stability of the pharmaceutical composition was assessed by means of autoclaving experiments, where the compositions were treated at 121° C. and 2 bar for 20 min.
Autoclaving experiments were performed with the aim to evaluate the stability of API in defined buffer systems and excipients. Clear glass covered by aluminium foil was chosen as primary packaging as it provided sufficient light protection for the material and was expected to provide a smaller risk of interaction than amber glass. The batches were autoclaved at 121° C. and 2 bar for 20 min, following analysis of impurity profiles.

[3] = Solubility and impurities of API with solubility enhancing excipients in citrate or phosphate buffer pH 4.5; conditions: for solubility: thermodynamic from solid
Procedure: The solubility of the API was assessed in different buffers together with different excipients. Batches containing different amounts of non-micronized API (i.e. 1 mg, 4 mg, 10 mg or 15 mg) in 100 g buffer were manufactured in order to have saturated solutions. Two different buffers were chosen (citrate buffer and phosphate buffer). […] In order to improve the poor solubility of the API, different solubility enhancing excipients were incorporated in the buffer systems in a concentration range of 0.1-2 wt.-%:
First, buffers were prepared according to Ph. Eur. After pH adjustment, the corresponding excipient was dissolved in the buffer. 1 mg of the API was added to the excipient containing buffer (i.e. 100 g) and stirred. If the API was dissolved completely, another 9 mg were added to a final amount of 10 mg API in […] buffer/excipient mixture. The resulting compositions were stirred overnight prior to filtration through a 0.45 μm filter and analysis and contained 1 mg or 10 mg API, respectively. The following compositions were prepared and the following solubility values were achieved: […]

[4] = Preliminary stability study of API intravesical solution; conditions: for Assay / Impurities: vitamin E TPGS 0.5%, API 40 μg/mL, Asc. 1%
Procedure: Two dose strengths were specified: 40 μg/mL and 150 μg/mL API. These concentrations were defined in order to stay below 80% of the saturated solubility values obtained during previous experiments. To enable dissolution of the API, 0.5 wt.-% and 2 wt.-% vitamin E TPGS were used for 40 μg/mL and 150 μg/mL API, respectively (24 h stirring). The compositions were treated with nitrogen and stored at 5° C., 25° C. and 40° C.

CN(C)[C@]1(c2cccc(F)c2)CC[C@]2(CC1)c1[nH]c3ccccc3c1CCN2C(=O)/C=C/c1ccccc1 [API, cis-(E)-4-(3-fluorophenyl)-2′,3′,4′,9′-tetrahydro-N,N-dimethyl-2′-(1-oxo-3-phenyl-2-propenyl)-spiro[cyclohexane-1,1′[1H]-pyrido[3,4-b]indol]-4-amine]
assay and impurities [1]: highest assay and lowest impurities values
degradation of API after autoclaving ([2]; citrate buffer and SLS): highest degradation
degradation of API after autoclaving ([2]; phosphate buffer and vitamin E TPGS): lowest degradation
Sum of impurities ([3]; citrate buffer pH 4.5, 1 wt.-% Cremophor ® RH 40, 1 mg API in 100 g buffer): 0.92 % (a/a)
Sum of impurities ([3]; citrate buffer pH 4.5, 1 wt.-% Gelucire ® 44/14, 10 mg API in 100 g buffer): 25.91 % (a/a)
Sum of impurities ([3]; citrate buffer pH 4.5, 1 wt.-% Labrasol ®, 10 mg API in 100 g buffer): 19.81 % (a/a)
Sum of impurities ([3]; citrate buffer pH 4.5, 1 wt.-% PEG 400, 10 mg API in 100 g buffer): 0 % (a/a)
Sum of impurities ([3]; citrate buffer pH 4.5, 1 wt.-% Propylene glycol, 10 mg API in 100 g buffer): 0 % (a/a)
Sum of impurities ([3]; citrate buffer pH 4.5, 1 wt.-% SLS, 1 mg API in 100 g buffer): 5.52 % (a/a)
Sum of impurities ([3]; citrate buffer pH 4.5, 1 wt.-% SLS, 10 mg API in 100 g buffer): 3.47 % (a/a)
Sum of impurities ([3]; citrate buffer pH 4.5, 1 wt.-% Solutol ® HS 15, 1 mg API in 100 g buffer): 0.53 % (a/a)
Sum of impurities ([3]; citrate buffer pH 4.5, 1 wt.-% Tween ® 80, 1 mg API in 100 g buffer): 1.1 % (a/a)
Sum of impurities ([3]; citrate buffer pH 4.5, 1 wt.-% vitamin E TPGS, 10 mg API in 100 g buffer): 5.71 % (a/a)
solubility ([3]; citrate buffer, pH 4.5, aqueous with cosolvent or surfactant or cyclodextrin, citrate buffer pH 4.5, 1 wt.-% Cremophor ® RH 40, 1 mg API in 100 g buffer): 7.18 µg/mL
solubility ([3]; citrate buffer, pH 4.5, aqueous with cosolvent or surfactant or cyclodextrin, citrate buffer pH 4.5, 1 wt.-% Gelucire ® 44/14, 10 mg API in 100 g buffer): 34.9 µg/mL
solubility ([3]; citrate buffer, pH 4.5, aqueous with cosolvent or surfactant or cyclodextrin, citrate buffer pH 4.5, 1 wt.-% Labrasol ®, 10 mg API in 100 g buffer): 12.1 µg/mL
solubility ([3]; citrate buffer, pH 4.5, aqueous with cosolvent or surfactant or cyclodextrin, citrate buffer pH 4.5, 1 wt.-% SLS, 1 mg API in 100 g buffer): 79.5 µg/mL
solubility ([3]; citrate buffer, pH 4.5, aqueous with cosolvent or surfactant or cyclodextrin, citrate buffer pH 4.5, 1 wt.-% SLS, 10 mg API in 100 g buffer): 8.19 µg/mL
solubility ([3]; citrate buffer, pH 4.5, aqueous with cosolvent or surfactant or cyclodextrin, citrate buffer pH 4.5, 1 wt.-% Solutol ® HS 15, 1 mg API in 100 g buffer): 7.95 µg/mL
solubility ([3]; citrate buffer, pH 4.5, aqueous with cosolvent or surfactant or cyclodextrin, citrate buffer pH 4.5, 1 wt.-% Tween ® 80, 1 mg API in 100 g buffer): 7.93 µg/mL
solubility ([3]; citrate buffer, pH 4.5, aqueous with cosolvent or surfactant or cyclodextrin, citrate buffer pH 4.5, 1 wt.-% vitamin E TPGS, 10 mg API in 100 g buffer): 76.4 µg/mL
Sum of impurities ([3]; phosphate buffer pH 4.5, 1 wt.-% Cremophor ® RH 40, 1 mg API in 100 g buffer): 0.2 % (a/a)
Sum of impurities ([3]; phosphate buffer pH 4.5, 1 wt.-% Gelucire ® 44/14, 1 mg API in 100 g buffer): 17.48 % (a/a)
Sum of impurities ([3]; phosphate buffer pH 4.5, 1 wt.-% Labrasol ®, 1 mg API in 100 g buffer): 5.91 % (a/a)
Sum of impurities ([3]; phosphate buffer pH 4.5, 1 wt.-% PEG 400, 1 mg API in 100 g buffer): 11.7 % (a/a)
Sum of impurities ([3]; phosphate buffer pH 4.5, 1 wt.-% Propylene glycol, 1 mg API in 100 g buffer): 38.22 % (a/a)
Sum of impurities ([3]; phosphate buffer pH 4.5, 1 wt.-% SLS, 1 mg API in 100 g buffer): 22.55 % (a/a)
Sum of impurities ([3]; phosphate buffer pH 4.5, 1 wt.-% Solutol ® HS 15, 1 mg API in 100 g buffer): 0.2 % (a/a)
Sum of impurities ([3]; phosphate buffer pH 4.5, 1 wt.-% Tween ® 80, 1 mg API in 100 g buffer): 0.52 % (a/a)
Sum of impurities ([3]; phosphate buffer pH 4.5, 1 wt.-% vitamin E TPGS, 10 mg API in 100 g buffer): 1.87 % (a/a)
solubility ([3]; phosphate buffer, pH 4.5, aqueous buffer, phosphate buffer pH 4.5, 1 wt.-% PEG 400, 1 mg API in 100 g buffer): 0.83 µg/mL
solubility ([3]; phosphate buffer, pH 4.5, aqueous buffer, phosphate buffer pH 4.5, 1 wt.-% Propylene glycol, 1 mg API in 100 g buffer): 0.04 µg/mL
solubility ([3]; phosphate buffer, pH 4.5, aqueous with cosolvent or surfactant or cyclodextrin, phosphate buffer pH 4.5, 1 wt.-% Cremophor ® RH 40, 1 mg API in 100 g buffer): 7.67 µg/mL
solubility ([3]; phosphate buffer, pH 4.5, aqueous with cosolvent or surfactant or cyclodextrin, phosphate buffer pH 4.5, 1 wt.-% Gelucire ® 44/14, 1 mg API in 100 g buffer): 53.5 µg/mL
solubility ([3]; phosphate buffer, pH 4.5, aqueous with cosolvent or surfactant or cyclodextrin, phosphate buffer pH 4.5, 1 wt.-% Labrasol ®, 1 mg API in 100 g buffer): 45.8 µg/mL
solubility ([3]; phosphate buffer, pH 4.5, aqueous with cosolvent or surfactant or cyclodextrin, phosphate buffer pH 4.5, 1 wt.-% SLS, 1 mg API in 100 g buffer): 1.68 µg/mL
solubility ([3]; phosphate buffer, pH 4.5, aqueous with cosolvent or surfactant or cyclodextrin, phosphate buffer pH 4.5, 1 wt.-% Solutol ® HS 15, 1 mg API in 100 g buffer): 6.71 µg/mL
solubility ([3]; phosphate buffer, pH 4.5, aqueous with cosolvent or surfactant or cyclodextrin, phosphate buffer pH 4.5, 1 wt.-% Tween ® 80, 1 mg API in 100 g buffer): 8.91 µg/mL
solubility ([3]; phosphate buffer, pH 4.5, aqueous with cosolvent or surfactant or cyclodextrin, phosphate buffer pH 4.5, 1 wt.-% vitamin E TPGS, 10 mg API in 100 g buffer): 256 µg/mL
assay values over storage ([4]; all investigated compositions, 3 months, stored at 6° C. or 25° C.): remained stable
assay over storage ([4]; stored at 40° C.): decreased considerably
Assay ([4]; 6° C., 1 m): 70.25 % L.S.
Impurities ([4]; 6° C., 1 m): 1.00 % (a/a)
Assay ([4]; 6° C., 2 w): 70.56 % L.S.
Impurities ([4]; 6° C., 2 w): 0.57 % (a/a)
Assay ([4]; t = 0): 70.39 % L.S.
